From PMC5927461, “Activation of host transient receptor potential (TRP) channels by praziquantel stereoisomers” (PLoS Neglected Tropical Diseases, 2018)

Assays:
[1] = biological target: TRPV1 (Homo sapiens, UniProt Q8NER1); assay: Single cell confocal Ca2+ imaging (fluo-4) in transfected HEK293 cells; type: cell-based; parameters: host or cells: HEK293 (ATCC CRL-1573.3), transient; settings: capsaicin 1μM, ±PZQ 100μM
Description: Human TRPM8 cDNA was a VersaClone from R&D Systems (RDC0188). Plasmids encoding human TRPA1 and human TRPV1 cDNA were purchased from DNASU plasmid repository (HsCD00080227 and HsCD00081472, respectively). The TRP channel coding sequences were subcloned into pCS2+ to introduce a COOH-term myc tag using the InFusion HD method (Clontech), HindIII/XhoI restriction enzymes (NEB) and the following primers: TRPM8 F–TGGGGACGTCGGAGC-aagctt-[…]; TRPM8 R–AAATCGATGGGATGC-ctcgag-[…]; TRPA1 F-GGACGTCGGAGC-aagctt- atgaagcgcagcctgagg; TRPA1 R-TCGATGGGATGC-ctcgag-[…]; TRPV1 F–GGACGTCGGAGC-aagctt-[…]; TRPV1 R-TCGATGGGATGC-ctcgag-cttctccccggaagcgg (where upper case specifies vector-specific sequences, italics indicate restriction sites, and lower case indicates TRP channel specific sequences). Primers are listed in a 5’ to 3’ orientation.
HEK293 cells (ATCC CRL-1573.3) were cultured in DMEM supplemented with 10% fetal bovine serum (FBS), penicillin (100 units/ml), streptomycin (100 μg/ml), and L-glutamine (290 μg/ml). Cells were transiently transfected (Lipofectamine LTX, Thermo Fisher) at a density of 2x10^6 cells per T-25 cell-culture flask with TRP channel cDNA. For Ca^2+ imaging assays, HEK293 cells were seeded onto 8-chambered coverglass slides (Thermo Fisher, 115411PK), at a density of 1x10^4 cells one day prior to imaging. Cells were washed twice with HBSS, and incubated with fluo-4-AM (4μM), pluronic F127 (0.4%) and probenecid (2.5mM) for 25 minutes at room temperature. Cells were then washed twice with HBSS, and left at room temperature (30 minutes) for de-esterification. Dishes were mounted on an Olympus IX81 microscope and fluorescence changes (λex = 488nM, λem = 513±15nm bandpass filter) monitored using a Yogokawa spinning disk confocal (CSU-X-M1N) and an Andor iXon Ultra 888 EMCCD camera.

[2] = biological target: T1, TRPM5 (Homo sapiens, UniProt Q9NZQ8); assay: TRP channel panel primary screen (membrane potential dye, stable CHO line); type: cell-based; settings: 0.3-300μM
T1 sequence (Q9NZQ8 1-1165): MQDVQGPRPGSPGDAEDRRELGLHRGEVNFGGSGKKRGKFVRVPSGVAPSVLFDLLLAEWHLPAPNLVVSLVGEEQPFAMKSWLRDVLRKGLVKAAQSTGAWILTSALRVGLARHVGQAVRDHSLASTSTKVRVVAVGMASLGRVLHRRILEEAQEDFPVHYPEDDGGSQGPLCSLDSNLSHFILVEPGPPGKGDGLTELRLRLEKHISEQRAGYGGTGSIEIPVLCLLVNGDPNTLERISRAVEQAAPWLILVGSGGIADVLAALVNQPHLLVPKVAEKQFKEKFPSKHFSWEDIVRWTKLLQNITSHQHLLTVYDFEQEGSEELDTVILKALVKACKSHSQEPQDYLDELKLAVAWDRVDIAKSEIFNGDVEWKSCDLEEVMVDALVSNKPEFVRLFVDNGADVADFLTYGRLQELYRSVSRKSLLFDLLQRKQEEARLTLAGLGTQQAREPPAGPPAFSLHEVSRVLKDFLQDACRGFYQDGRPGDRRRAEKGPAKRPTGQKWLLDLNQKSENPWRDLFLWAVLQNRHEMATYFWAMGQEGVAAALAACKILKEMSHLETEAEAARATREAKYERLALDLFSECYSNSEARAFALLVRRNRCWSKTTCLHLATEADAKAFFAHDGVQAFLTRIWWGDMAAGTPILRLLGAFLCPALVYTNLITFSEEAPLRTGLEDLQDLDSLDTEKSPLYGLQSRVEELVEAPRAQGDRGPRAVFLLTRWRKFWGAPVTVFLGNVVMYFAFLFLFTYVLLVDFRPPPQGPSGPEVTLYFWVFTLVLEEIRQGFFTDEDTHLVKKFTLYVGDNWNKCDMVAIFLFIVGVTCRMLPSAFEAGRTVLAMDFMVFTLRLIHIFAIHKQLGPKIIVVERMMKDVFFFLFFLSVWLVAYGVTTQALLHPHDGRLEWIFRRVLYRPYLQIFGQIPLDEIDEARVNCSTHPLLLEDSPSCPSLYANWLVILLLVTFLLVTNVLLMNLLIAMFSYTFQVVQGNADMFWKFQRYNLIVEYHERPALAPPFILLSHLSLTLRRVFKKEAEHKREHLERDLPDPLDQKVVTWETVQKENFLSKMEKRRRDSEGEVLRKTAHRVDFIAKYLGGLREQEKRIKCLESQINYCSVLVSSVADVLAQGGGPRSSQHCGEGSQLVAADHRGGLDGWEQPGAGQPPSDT
Experimental: ±PZQ, (R)-PZQ and (S)-PZQ were screened against a panel of 17 human TRP channels (SB Drug Discovery, Glasgow). For all hTRPs, except for TRPM5, individual channel constructs were stably expressed in HEK cell lines. TRMP5 was expressed in a stable CHO cell line. In preparation for the assays, cells were trypsinized, counted and seeded (50,000 cells/well) in black, clear-bottomed 96 well plates and incubated overnight. […] Plates were screened using a Flexstation (Molecular Devices, FX01138), monitoring fluorescence values every ~1.52 seconds. For ‘agonist mode’ testing, 10μl of the appropriate test compound, or standard agonist, was added after 20 seconds and fluorescence monitored for 2 minutes at λex = 485nm, λem = 525nm for Ca^2+ imaging and λex = 530nm, λem = 565nm for membrane potential measurements. […]

Chain of TRPV1 (Q8NER1 whole entry, the tested form may be a part): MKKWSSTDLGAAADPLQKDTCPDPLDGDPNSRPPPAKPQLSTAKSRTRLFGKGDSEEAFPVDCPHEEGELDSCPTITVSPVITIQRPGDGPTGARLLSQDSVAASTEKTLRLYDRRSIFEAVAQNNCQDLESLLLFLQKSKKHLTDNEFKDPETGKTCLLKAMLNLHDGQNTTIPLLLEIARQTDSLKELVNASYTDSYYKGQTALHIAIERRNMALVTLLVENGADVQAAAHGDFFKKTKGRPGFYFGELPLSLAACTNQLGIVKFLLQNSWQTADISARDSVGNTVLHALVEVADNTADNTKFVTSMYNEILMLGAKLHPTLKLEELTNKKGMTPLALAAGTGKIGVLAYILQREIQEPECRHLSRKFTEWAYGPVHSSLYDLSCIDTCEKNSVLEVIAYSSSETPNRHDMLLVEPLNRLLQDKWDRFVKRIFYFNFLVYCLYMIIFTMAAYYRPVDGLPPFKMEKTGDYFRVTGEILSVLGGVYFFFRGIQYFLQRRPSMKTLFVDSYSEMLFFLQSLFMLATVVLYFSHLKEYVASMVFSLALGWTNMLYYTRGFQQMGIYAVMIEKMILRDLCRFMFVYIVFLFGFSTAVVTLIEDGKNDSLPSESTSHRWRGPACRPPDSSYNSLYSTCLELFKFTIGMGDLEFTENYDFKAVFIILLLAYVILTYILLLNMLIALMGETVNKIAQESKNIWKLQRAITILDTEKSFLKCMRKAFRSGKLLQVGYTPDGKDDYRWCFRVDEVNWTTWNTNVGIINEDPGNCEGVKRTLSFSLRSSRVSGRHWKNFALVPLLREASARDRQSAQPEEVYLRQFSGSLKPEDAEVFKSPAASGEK

Row | Ca2+ signal in TRPV1 expressing cells [1] | activation of TRPM5 in primary screen [2] | Structure (SMILES)
1 | No responses |  | O=C(C1CCCCC1)N1CC(=O)N2CCc3ccccc3C2C1 (racemic) [±PZQ, praziquantel]
2 |  | not activated | O=C(C1CCCCC1)N1CC(=O)N2CCc3ccccc3[C@H]2C1 [(S)-PZQ]
